# According to US20200360352A1, “USE OF RIFAMYCIN-NITROIMIDAZOLE COUPLING MOLECULE” (priority 2019, published 2020):
# Like-named read-outs stand apart in the source and are kept apart here.
# What was measured:
# Mycodacterium chelonei = test: MIC, micro broth dilution with resazurin readout; type: cell-based; conditions: MH Culture Medium; Chelonei (standard strain); read-out: Minimum Inhibitory Concentration (MIC)
# Mycobacterium kansasii [1] = test: MBC, plating of MIC wells and CFU count; type: cell-based; conditions: read-out: Minimum Bactericidal Concentration (MBC)
# Mycobacterium fortuitum = test: MIC, micro broth dilution with resazurin readout; type: cell-based; conditions: Mycolicibacterium fortuitum, MH Culture Medium, read-out: Minimum Inhibitory Concentration (MIC)
# Mycobacterium avium [2] = test: MBC, plating of MIC wells and CFU count; type: cell-based; conditions: read-out: Minimum Bactericidal Concentration (MBC)
# Mycobacterium kansasii [3] = test: MIC, micro broth dilution with resazurin readout; type: cell-based; conditions: read-out: Minimum Inhibitory Concentration (MIC)
# [4] = test system: Mycobacterium intracellulare; test: MIC, micro broth dilution with resazurin readout; type: cell-based; conditions: MH Culture Medium, read-out: Minimum Inhibitory Concentration (MIC)
# [5] = test system: Mycobacterium massiliense; test: MIC, micro broth dilution with resazurin readout; type: cell-based; conditions: Mycobacteroides abscessus, MH Culture Medium, read-out: Minimum Inhibitory Concentration (MIC)
# Mycobacterium abscessus [6] = test: MBC, plating of MIC wells and CFU count; type: cell-based; conditions: Mycobacteroides abscessus, read-out: Minimum Bactericidal Concentration (MBC)
# Mycobacterium abscessus [7] = test: MIC, micro broth dilution with resazurin readout; type: cell-based; conditions: Mycobacteroides abscessus, read-out: Minimum Inhibitory Concentration (MIC)
# Mycobacterium avium [8] = test: MIC, micro broth dilution with resazurin readout; type: cell-based; conditions: read-out: Minimum Inhibitory Concentration (MIC)
# NTM = test: In-vitro activity against NTM, overall conclusion; type: cell-based, nontuberculous mycobacteria; conditions: overall conclusion from Tables 1-3
# Procedure: In this embodiment, an inhibitory test is performed on pathogenic bacteria, i.e. Mycobacterium avium, Mycobacterium abscessus and Mycobacterium kansasii belonging to the nontuberculous mycobacteria using the rifamycin-nitroimidazole coupling molecule of the present invention and positive controls, and then Minimum Inhibitory Concentration (MIC) and Minimum Bactericidal Concentration (MBC) are obtained. Clarithromycin, moxifloxacin, amikacin, rifampicin, rifabutin, ciprofloxacin and metronidazole are used as positive controls. The test strains are provided by KnowBio company, and the Chinese clinically isolated strains are derived from Shanghai Pulmonary Hospital.
# The inhibitory test of this embodiment is performed by the micro broth dilution method using two different culture mediums: (1) MH (Mueller-Hinton) micro broth dilution method: using MH culture medium (or culture solution), wherein the concentration of calcium and magnesium ions in MH broth (cation-adjusted) is consistent with that in the Guideline of the Clinical and Laboratory Standards Institute (CLSI; M7-A7); and (2) 7H9 micro broth dilution method: using 7H9 culture medium (or culture solution, provided by Sigma-Aldrich).
# [9] = 7H9 Broth, Mycobacterium avium Rough
# [10] = 7H9 Broth, Mycobacterium avium Smooth
# [11] = MH Broth, Mycobacterium avium Rough
# [12] = MH Broth, Mycobacterium avium Smooth
compound,measurement,setting,value
CO[C@H]1/C=C/O[C@@]2(C)Oc3c(C)c(O)c4c(c3C2=O)C2=NC3(CCN(CCn5c([N+](=O)[O-])cnc5C)CC3)NC2=C(NC(=O)/C(C)=C\C=C\[C@H](C)[C@H](O)[C@@H](C)[C@@H](O)[C@@H](C)[C@H](OC(C)=O)[C@@H]1C)C4=O [Compound I],MIC,Mycodacterium chelonei,32 mg/L
same,MBC,Mycobacterium kansasii [1]; 7H9 Broth,8 mg/L
same,MBC,Mycobacterium kansasii [1]; MH Broth,2 mg/L
same,MIC,Mycobacterium fortuitum; Fortuitum (standard strain),16 mg/L
same,MIC,Mycobacterium fortuitum; clinically isolated strain Fortuitum (S103),> 64 mg/L
same,MIC,Mycobacterium fortuitum; clinically isolated strain Fortuitum (S111),4 mg/L
same,MBC,Mycobacterium avium [2]; [9],4 mg/L
same,MBC,Mycobacterium avium [2]; [10],16 mg/L
same,MBC,Mycobacterium avium [2]; [11],4 mg/L
same,MBC,Mycobacterium avium [2]; [12],16 mg/L
same,MIC,Mycobacterium kansasii [3]; 7H9 Broth,2 mg/L
same,MIC,Mycobacterium kansasii [3]; MH Broth,2 mg/L
same,MIC,"Mycobacterium kansasii [3]; MH Culture Medium, Kansasii (standard strain)",0.0625 mg/L
same,MIC,"Mycobacterium kansasii [3]; MH Culture Medium, clinically isolated strain Kansasii (S9)",0.0625 mg/L
same,MIC,"Mycobacterium kansasii [3]; MH Culture Medium, clinically isolated strain Kansasii (S199)",0.0625 mg/L
same,MIC,"Mycobacterium kansasii [3]; MH Culture Medium, clinically isolated strain Kansasii (S520)",0.0625 mg/L
same,MIC,"Mycobacterium kansasii [3]; MH Culture Medium, clinically isolated strain Kansasii (S609)",0.0625 mg/L
same,MIC,[4]; Intracellulare (standard strain),0.0625 mg/L
same,MIC,[4]; clinically isolated strain Intracellulare (S90),0.25 mg/L
same,MIC,[4]; clinically isolated strain Intracellulare (S261),0.25 mg/L
same,MIC,[4]; clinically isolated strain Intracellulare (S269),0.125 mg/L
same,MIC,[4]; clinically isolated strain Intracellulare (S290),0.25 mg/L
same,MIC,[4]; clinically isolated strain Intracellulare (S291),0.125 mg/L
same,MIC,[4]; clinically isolated strain Intracellulare (S298),0.25 mg/L
same,MIC,[4]; clinically isolated strain Intracellulare (S442),0.0625 mg/L
same,MIC,[4]; clinically isolated strain Intracellulare (S541),0.125 mg/L
same,MIC,[4]; clinically isolated strain Intracellulare (S623),0.25 mg/L
same,MIC,[4]; clinically isolated strain Intracellulare (ZPS),0.0625 mg/L
same,MIC,[5]; clinically isolated strain Massiliense (D10),64 mg/L
same,MIC,[5]; clinically isolated strain Massiliense (D14),64 mg/L
same,MIC,[5]; clinically isolated strain Massiliense (D18),64 mg/L
same,MBC,Mycobacterium abscessus [6]; 7H9 Broth,1 mg/L
same,MBC,Mycobacterium abscessus [6]; MH Broth,16 mg/L
same,MIC,Mycobacterium abscessus [7]; 7H9 Broth,1 mg/L
same,MIC,Mycobacterium abscessus [7]; MH Broth,1 mg/L
same,MIC,Mycobacterium avium [8]; [9],4 mg/L
same,MIC,Mycobacterium avium [8]; [10],4 mg/L
same,MIC,Mycobacterium avium [8]; [11],4 mg/L
same,MIC,Mycobacterium avium [8]; [12],4 mg/L
same,MIC,"Mycobacterium avium [8]; MH Culture Medium, Avium (standard strain)",0.0625 mg/L
same,MIC,"Mycobacterium avium [8]; MH Culture Medium, clinically isolated strain Avium (S31)",0.0625 mg/L
same,MIC,"Mycobacterium avium [8]; MH Culture Medium, clinically isolated strain Avium (S123)",0.0625 mg/L
same,MIC,"Mycobacterium avium [8]; MH Culture Medium, clinically isolated strain Avium (S559)",0.0625 mg/L
same,MIC,"Mycobacterium avium [8]; MH Culture Medium, clinically isolated strain Avium (S568)",0.25 mg/L
same,MIC,"Mycobacterium avium [8]; MH Culture Medium, clinically isolated strain Avium (S577)",0.0625 mg/L
same,MIC,"Mycobacterium avium [8]; MH Culture Medium, clinically isolated strain Avium (S597)",0.125 mg/L
same,MIC,"Mycobacterium avium [8]; MH Culture Medium, clinically isolated strain Avium (S602)",0.0625 mg/L
same,in-vitro activity against NTM,NTM,effective and broad in-vitro activity against NTM
